pIC50: −log10 of the molar value. Where two headings read alike, the source gives them in different places.
Legend:
[1] = biological target: T1, human 5α-reductase type 2 (Homo sapiens, UniProt P31213); assay: Human 5α-reductase type 2 assay (BPH tissue homogenate); settings: for inhibition at 10 µM: read-out: 5α-Reductase type 2 % inhibition at 10 μM
T1 sequence (P31213 1-254): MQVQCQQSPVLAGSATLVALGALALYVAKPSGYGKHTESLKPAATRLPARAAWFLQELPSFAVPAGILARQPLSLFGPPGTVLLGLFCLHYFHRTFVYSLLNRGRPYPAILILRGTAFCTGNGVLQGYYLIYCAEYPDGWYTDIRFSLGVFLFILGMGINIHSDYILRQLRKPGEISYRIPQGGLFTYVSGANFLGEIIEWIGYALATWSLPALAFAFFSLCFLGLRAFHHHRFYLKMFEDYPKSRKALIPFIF

[2] = biological target: T2, human 5α-reductase type 1 (Homo sapiens, UniProt P18405); assay: Human 5α-reductase type 1 assay (DU-145 cell line)
T2 sequence (P18405 1-259): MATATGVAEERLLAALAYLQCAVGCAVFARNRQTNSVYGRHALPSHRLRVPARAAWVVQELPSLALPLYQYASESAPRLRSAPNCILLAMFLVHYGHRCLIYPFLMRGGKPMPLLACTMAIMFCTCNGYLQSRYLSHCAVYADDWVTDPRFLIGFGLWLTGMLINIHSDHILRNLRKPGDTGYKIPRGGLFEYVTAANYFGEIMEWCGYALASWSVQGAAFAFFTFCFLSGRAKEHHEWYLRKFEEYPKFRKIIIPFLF

[3] = biological target: T3, CYP17 (Homo sapiens, UniProt P05093); assay: CYP17 inhibition, acetic acid releasing assay with intact P450c17-expressing E. coli
T3 sequence (P05093 1-508): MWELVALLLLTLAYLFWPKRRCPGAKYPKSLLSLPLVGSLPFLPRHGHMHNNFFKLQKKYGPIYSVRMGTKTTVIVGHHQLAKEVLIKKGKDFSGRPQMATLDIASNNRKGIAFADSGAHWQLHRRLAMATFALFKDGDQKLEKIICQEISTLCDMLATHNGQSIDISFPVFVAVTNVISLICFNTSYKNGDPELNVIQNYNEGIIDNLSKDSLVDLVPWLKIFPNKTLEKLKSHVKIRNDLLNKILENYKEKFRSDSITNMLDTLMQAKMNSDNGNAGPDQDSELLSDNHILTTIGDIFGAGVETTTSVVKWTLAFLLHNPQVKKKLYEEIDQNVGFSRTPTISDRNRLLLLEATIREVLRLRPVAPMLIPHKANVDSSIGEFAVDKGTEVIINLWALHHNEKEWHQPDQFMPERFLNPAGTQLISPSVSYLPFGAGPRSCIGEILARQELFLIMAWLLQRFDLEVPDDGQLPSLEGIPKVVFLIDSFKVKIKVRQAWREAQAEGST

[4] = biological target: T3, CYP17; assay: UV-vis difference spectroscopy, binding to heme iron of CYP17; set-up: peak position of Soret maximum of the enzyme complex: unit not given here
[5] = test system: LAPC4 cells; assay: LAPC4 cell growth, WST-1 viability assay
Description: (§1) To determine the effect of novel compounds on cell proliferation, cells are transferred into steroid-free medium three days prior to the start of the experiments. Steroid-free medium consisted of phenol red free RPMI supplemented with 5% dextran-coated, charcoal treated serum, and 1% penicillin/streptomycin solution. Growth studies are then performed by plating cells (3×10^4) in 24-well multi-well dishes (Corning, Inc. Corning, N.Y.). After a 24 hours attachment period, the medium is aspirated and replaced with steroid-free medium containing vehicle or the indicated concentration of DHT (1 nM) and compounds (0.1 μM-10 μM). Control wells are treated with vehicle (ethanol). This medium is changed every three days and the number of viable cells is compared by WST-1 [4-[3-(4-iodophenyl)-2-(4-nitrophenyl)-2H-5-tetrazolio]-1,3-benzene disulfonate] assay on the seventh day. Following incubation of cells for the above-mentioned time, 10% WST-1 solution is added to each well and incubated at 37° C. for three hours. Following incubation, plates are slightly shaken and immediately read at 450 nm with a scanning multi-well spectrophotometer. All results represent the average of a minimum of three wells. Additional control consists of medium alone with no cells.
(§2) Cells were grown in steroid-free medium before plating.

[6] = test system: LNCaP cells; assay: LNCaP cell growth, WST-1 viability assay
Description: as §1, §2

[7] = test system: LNCaP mutant AR-mediated transcription; assay: Luciferase transactivation assay in LNCaP cells transfected with ARR2-Luc; settings: 18 h
Description: Luciferase Transactivation Assay: Transcriptional activation assay is carried out as described previously by Kim et al., above, with minor modifications. […] The pRL-null (Promega) is used as the internal control. […] Luciferase activities are measured in triplicates by using dual luciferase assay system according to the manufacturer's instruction (Promega).
The bars represent the mean light units [counts per second (cps)/unit protein, i.e., relative luciferase activity] in triplicate wells from three separate experiments.

[8] = test system: LAPC4 human prostate tumor xenograft; assay: LAPC4 xenograft, second experiment (treatment from day after inoculation); type: in vivo, mouse
Description: The second in vivo experiment tests the ability of 5 to inhibit the growth of LAPC4 prostate cancer cells growing in SCID mice, and 16 (Chart 1), a previously identified potent CYP17 inhibitor/antiandrogen (Gregoriyev et al. and Njar et al., J. Med. Chem., 1998, 41, 902-912, above) and castration are used as reference treatments. In this experiment, treatment begins on the day that mice were inoculated subcutaneously with hormone-dependent LAPC4 cells and are castrated or injected sc twice daily with 5 or 16.
In Vivo Antitumor Studies (LAPC-4 Prostate Cancer Xenografts): All animal studies are performed according to the guidelines and approval of the Animal Care Committee of the University of Maryland School of Medicine, Baltimore. Male severe combined immunodeficient (SCID) mice 4-6 weeks of age purchased from the National Cancer Institute-Frederick Cancer Research and Development Center (Fredrick, Md.) are housed in a pathogen-free environment under controlled conditions of light and humidity and allowed free access to food and water. Tumors are developed from LAPC4 cells inoculated subcutaneously (s.c.) in the mice essentially as previously described (21). LAPC4 cells are grown in IMEM with 15% FBS plus 1% PS and 10 nm DHT until 80% confluent. Cells are scraped into DPBS, collected by centrifugation, and resuspended in Matrigel (10 mg/ml) at 3×10^7 cells/ml. Mice are injected s.c. with 100 μl of the cell suspension at one site on each flank. Tumors are measured weekly with calipers, and tumor volumes are calculated by the formula: […]).
In the second experiment, mice are inoculated with LAPC4 cells and are divided into four groups of 5 mice each. The control and castrated group receiv vehicle, while the other two groups receiv either VN/85-1 (0.15 mmol/kg twice-daily, 9 a.m. and 5 p.m.) or 5 (0.15 mmol/kg twice-daily, 9 a.m. and 5 p.m.). These treatments are initiated one day after LAPC4 cell inoculation; continued for 14 weeks for control group, 19 weeks (for VN/85-1 and castration groups) and for 21 weeks for 5 treated group and tumors are measured and processed as described above.
FIG. 7: The effects of 5, 16, and orchidectomy on the formation and growth of LAPC4 prostate tumors in male SCID mice. 3×10^7 LAPC-4 cells were injected s.c. into the dorsal flank of SCID mice. One group of mice was castrated. The other groups of mice received either vehicle or 5 (0.15 mmol/kg twice-daily) or 16 (0.15 mmol/kg twice-daily). Daily treatment with 5 or 16 was initiated 1 day after cell inoculation. Tumors volumes were measured weekly, and the percentage of change in tumor volume was determined after 16 weeks of treatment * Indicates significant difference of 5 versus control, castration and 16 at week 14 (P 0.00065, 0.05 and 0.0097, respectively). ** Indicates significant difference of 5 versus castration and 16 at week 16 (P=0.047 and 0.0047, respectively). ↓-↓↓: Period of reduced administered dose of 5.

[9] = read-out: CYP17 IC50, intact P450c17-expressing E. coli, substrate [21-3H]-17α-hydroxypregnenolone

SMILES: C[C@]12CC[C@H](O)CC1=CCC1C2CC[C@]2(C)C(n3nnc4ccccc43)=CCC12 (stereo partly drawn) [Compound 9, 3β-Hydroxy-17-(benzo-1H-1,2,3-triazol-1-yl)androsta-5,16-diene]
- inhibition at 10 µM [1]: 17%
- 5α-Reductase type 1 % inhibition at 10 μM ([2]; 10 μM, DU-145 cells, substrate 5 nM [1β-3H]androstenedione): ni^f
- pIC50 [3, 9]: 5.90
- peak position of Soret maximum of the enzyme complex [4]: 426
- type of difference spectrum induced [4]: type II difference spectrum
- melting point: 241 to 244 °C

SMILES: C[C@]12CCC(=O)C[C@@H]1CC[C@@H]1[C@@H]2CC[C@]2(C)[C@@H](O)CC[C@@H]12 [DHT, dihydrotestosterone]
- induction of LAPC4 cell proliferation ([5]; 10 nM): does not significantly induce cell proliferation
- stimulation of LNCaP cell proliferation compared to vehicle-treated cells ([6]; 1 nM): about 2 fold
- increase of luciferase expression ([7]; 1.0 nM): approximately 99.6 fold

SMILES: C[C@]12CC[C@H](O)CC1=CC[C@@H]1[C@@H]2CC[C@]2(C)C(c3cccnc3)=CC[C@@H]12 [Abiraterone, reference compound]
- pIC50 [3]: 6.10

SMILES: C[C@]12CC[C@H](O)CC1=CCC1C2CC[C@]2(C)C(c3cnccn3)=CCC12 (stereo partly drawn) [Compound 14, 3β-Hydroxy-17-(2-pyrazyl)-androsta-5,16-diene]
- pIC50 [3, 9]: 5.42

SMILES: C[C@]12CCC(=O)C=C1CCC1C2CC[C@]2(C)C(n3nnc4ccccc43)=CCC12 (stereo partly shown) [Compound 10, 17-(benzo-1H-1,2,3-triazol-1-yl)androsta-4,16-diene-3-one]
- inhibition at 10 µM [1]: 56%
- inhibition at 10 µM ([2]; read-out: 5α-Reductase type 1 % inhibition at 10 μM): 21%
- pIC50 [3, 9]: 5.24
- melting point: 280 to 283 °C

SMILES: CC(C)(C)NC(=O)[C@H]1CC[C@H]2[C@@H]3CC[C@H]4NC(=O)C=C[C@]4(C)[C@H]3CC[C@]12C [Finasteride, reference compound]
- pIC50 ([1]; read-out: 5α-Reductase type 2 [IC50], BPH tissue enzyme, values in square brackets): 8.70
- pIC50 ([2]; read-out: 5α-Reductase type 1 [IC50], DU-145 cells, values in square brackets): 7.22

SMILES: CC(O)(CS(=O)(=O)c1ccc(F)cc1)C(=O)Nc1ccc(C#N)c(C(F)(F)F)c1 (stereo not shown) [Casodex]
- pIC50 ([5]; Homo sapiens, LAPC4, 168 h, read-out: IC50, inhibition of LAPC4 cell proliferation, 10 nM DHT, 7 days, WST-1): 5.00
- pIC50 ([6]; Homo sapiens, LNCaP, 168 h, read-out: IC50, inhibition of DHT-induced LNCaP cell proliferation, 1 nM DHT, 7 days, WST-1): 5.07
- effect on luciferase activity, compound alone ([7]; 0.1 and 10.0 μM, without DHT): no effect
- effect on luciferase expression induced by 1.0 nM DHT ([7]; with 1.0 nM DHT): decreased in a concentration-dependent manner

SMILES: C[C@]12CC[C@H](O)CC1=CC[C@@H]1[C@@H]2CC[C@]2(C)C(n3ccnc3)=CC[C@@H]12 [VN/85-1, 3β-hydroxy-17-(1H-imidazole-1-yl)androsta-5,16-diene]
- times more potent than 5 in CYP17 inhibition [3]: 6 times
- pIC50 [3, 9]: 7.30
- week of therapy at which palpable and measurable tumors develop ([8]; 0.15 mmol/kg twice-daily): 11 week
- increase of tumor volume ([8]; 0.15 mmol/kg twice-daily s.c., week 14): 3.7 fold
- reduction of tumor volume versus control mice ([8]; 0.15 mmol/kg twice-daily s.c., week 14 (b4 prints 50 mg/kg/twice daily)): 53.8%

SMILES: C[C@]12CC[C@H](O)CC1=CC[C@@H]1[C@@H]2CC[C@]2(C)C(c3cncnc3)=CC[C@@H]12 [Compound 15, 3β-Hydroxy-17-(5-pyrimidyl)-androsta-5,16-diene]
- pIC50 [3]: 6.30
- melting point: 231 to 233 °C
